This passage reports TGI results from PubChem BioAssay (NCI).

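Tested at 5 concentrations; 48 h exposure; 96-well plates; endpoints linearly interpolated, else capped at highest concentration. At the TGI there is no net growth.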

Experiment in all cases: NCI anticancer screen, dose series, 48 h
Experiment [1] deals with BT-549 breast.
The subject of experiment [2] is HCC-2998 colon.
In experiment [3] the test system is HCT-116 colon.
The test system of experiment [4] is HS 578T breast.
For experiment [5], the system named is IGROV1 ovarian.
Experiment [6] concerns M14 melanoma.
For experiment [7], the system named is MDA-MB-231 breast.
Experiment [8] concerns MDA-MB-435.
Experiment [9] has as its system NCI-H23 lung.
Experiment [10] has as its system NCI-H460 lung.
In experiment [11] the test system is NCI-H522 lung.
The subject of experiment [12] is OVCAR-3 ovarian.
The subject of experiment [13] is OVCAR-4 ovarian.
Experiment [14] has as its system SK-MEL-5 melanoma.
The subject of experiment [15] is SN12C renal.
For experiment [16], the system named is SNB-19 CNS.
Experiment [17] deals with SR leukemia.
Experiment [18] has as its system SW-620 colon.
Experiment [19] relates to U251 CNS.
Experiment [20] relates to UACC-257 melanoma.

`O=CC1OC(=O)c2cc(O)c(O)c(O)c2-c2c(cc(O)c(O)c2O)C(=O)OC1C1OC(=O)c2cc(O)c(O)c(O)c2-c2c(O)c(O)c3oc(=O)c4c(c(O)c(O)c5oc(=O)c2c3c54)-c2c(cc(O)c(O)c2O)C(=O)OCC1O` (centres undefined): the TGI in [1] was greater than 100 µM; in experiment [2], greater than 100 µM; in experiment [3], 32.6 µM; in experiment [4], greater than 100 µM; in [5], greater than 100 µM; in experiment [6], greater than 100 µM. Further, the TGI in [7] was 37 µM; in experiment [8] it was 46.4 µM; in experiment [9] it was greater than 100 µM; in [10] it was greater than 100 µM; in [11], 85.7 µM; in experiment [12] it was greater than 100 µM. Besides, the TGI in experiment [13] was 38.2 µM; in experiment [14], greater than 100 µM; in experiment [15] it was 35.5 µM; in experiment [16], greater than 100 µM; in [17], greater than 100 µM; in experiment [18], 47.7 µM. For the same molecule, the TGI in [19] is 44.8 µM; in [20] it was greater than 100 µM.
For the molecule `N=c1oc2cc(O)ccc2cc1C(=O)Nc1cccc2ccccc12`, the TGI in experiment [1] was 11.5 µM; in experiment [2], 12.9 µM; in [3] it was 14.7 µM; in [4], greater than 100 µM; in experiment [5], 14.4 µM; in experiment [6], 60 µM. The TGI in experiment [7] is 10.1 µM; in experiment [8] it was 6.54 µM; in experiment [9], 12.9 µM; in [10], 30.2 µM; in [11], 7.47 µM; in experiment [12] it was greater than 27.9 µM. For the same molecule, the TGI was greater than 51.1 µM in [13]; 15.8 µM in experiment [14]; 18.9 µM in experiment [15]; 35.4 µM in [16]; 7.83 µM in experiment [17]; 45.9 µM in experiment [18]. For the same molecule, the results for the TGI in experiment [19] and in [20] were 12.4 µM and 41.2 µM, respectively.
Consider `O=C(CC(C(=O)c1cccs1)c1ccc2c(c1)OCO2)c1ccccc1` (centres undefined), for which the TGI in experiment [1], in [2], in [3], in experiment [4], in [5] and in experiment [6] was greater than 100 µM each time. Moreover, the TGI in [7], in experiment [8], in [9], in experiment [10], in experiment [11] and in [12] was greater than 100 µM throughout. For the same molecule, the TGI in experiment [13], in [14], in experiment [15], in experiment [16], in experiment [17] and in [18] was greater than 100 µM throughout. Further, the TGI in experiment [19] and in experiment [20] was greater than 100 µM in each case.
For the molecule `[O-][N+]1=C2CCC/C(=N/O)C2(O)C2CCCCC21N1CCOCC1` (centres undefined), the TGI in experiment [1], in [2], in experiment [3], in experiment [4], in [5] and in experiment [6] was greater than 100 µM throughout. Besides, the TGI in experiment [7], in [8], in [9], in [10], in experiment [11] and in [12] was greater than 100 µM throughout. The TGI in experiment [13], in [14], in experiment [15], in experiment [16], in experiment [17] and in [18] was greater than 100 µM in each case. The TGI in experiment [19] and in experiment [20] was greater than 100 µM in each case.
Take `c1ccc(/C(=N/Nc2ccccn2)c2cccnn2)cc1`: the TGI in [1] is greater than 100 µM; in experiment [2], greater than 100 µM; in experiment [3] it was greater than 100 µM; in experiment [4] it was greater than 79 µM; in [5] it was 18 µM; in experiment [6], 18.5 µM. The TGI in experiment [7] was greater than 75.5 µM; in experiment [8] it was greater than 100 µM; in experiment [9], greater than 50.3 µM; in [10] it was greater than 100 µM; in experiment [11], 4.93 µM; in experiment [12], greater than 100 µM. Also, the TGI is greater than 100 µM in [13]; 52.3 µM in experiment [14]; 40.7 µM in experiment [15]; greater than 86.9 µM in experiment [16]; greater than 20.8 µM in experiment [17]; greater than 78.8 µM in experiment [18]. For the same molecule, the TGI in experiment [19] and in experiment [20] was greater than 100 µM in each case.
As for `CN(/N=C/C=N/N(C)C1=NCCN1)C1=NCCN1`, the TGI in experiment [1], in experiment [2], in experiment [3], in experiment [4], in experiment [5] and in [6] was greater than 100 µM in each case. Besides, the TGI in experiment [7], in [8], in experiment [9], in experiment [10], in experiment [11] and in experiment [12] was greater than 100 µM each time. For the same molecule, the TGI in experiment [13], in [14], in [15], in experiment [16], in experiment [17] and in experiment [18] was greater than 100 µM in each case. The TGI in [19] and in experiment [20] was greater than 100 µM throughout.
Turning to `O=C(Nc1ccc(Cl)cc1)c1cc(S(=O)(=O)N2CCNNC2=O)c(S)cc1Cl`, the TGI in [1], in experiment [2], in [3], in experiment [4], in [5] and in [6] was greater than 100 µM throughout. Further, the TGI in experiment [7], in experiment [8], in experiment [10], in [11], in experiment [12] and in experiment [13] was greater than 100 µM each time. Besides, the TGI in experiment [14], in [15], in experiment [16], in [17], in experiment [18] and in experiment [19] was greater than 100 µM throughout. The TGI in experiment [20] was greater than 100 µM.
